target: T1, Human DGAT1 (Homo sapiens, UniProt O75907); assay: human DGAT1 lipid extraction (LE) assay, inhibition of triacylglycerol product formation; format: biochemical; conditions: human DGAT1 microsomes from Sf9 cells, read-out: hDGAT LE IC50
T1 construct: made in house; host or cells: Sf9 insect cells (baculovirus); microsomes used as enzyme
T1 sequence (O75907 1-488): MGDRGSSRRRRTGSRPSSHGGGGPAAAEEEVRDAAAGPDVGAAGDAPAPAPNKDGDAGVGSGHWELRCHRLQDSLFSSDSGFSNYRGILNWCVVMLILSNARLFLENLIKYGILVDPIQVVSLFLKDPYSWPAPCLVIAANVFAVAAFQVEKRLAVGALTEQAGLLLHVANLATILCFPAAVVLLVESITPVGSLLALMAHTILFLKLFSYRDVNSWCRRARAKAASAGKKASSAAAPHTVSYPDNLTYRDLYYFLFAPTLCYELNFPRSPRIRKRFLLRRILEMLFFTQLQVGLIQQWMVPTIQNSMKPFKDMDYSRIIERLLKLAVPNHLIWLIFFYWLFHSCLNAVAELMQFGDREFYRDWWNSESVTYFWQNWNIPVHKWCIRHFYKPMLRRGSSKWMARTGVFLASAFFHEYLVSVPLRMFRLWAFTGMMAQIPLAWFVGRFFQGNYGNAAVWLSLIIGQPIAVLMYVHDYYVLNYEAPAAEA
Method: Human DGAT1 was expressed in Sf9 insect cells using a baculovirus expression system. Microsomes were prepared and used as enzyme for in vitro inhibition testing in either of two formats measuring production of coenzyme A or tridecanoylglycerol product, respectively. All steps were performed at 21-23° C. All data for DGAT1 inhibition by test compounds were collected under conditions where product formation was linear with reaction time.
For inhibition of triacylglycerol product formation, 11 uL reactions were run in white Polyplate-384 (PerkinElmer6007300) starting with a 30 minute pre-reaction incubation of 5 uL of 2.2× enzyme and 1 uL of 100% DMSO containing test compound or control compound, {4-[4-(4-amino-7,7-dimethyl-7H-pyrimido[4,5-b][1,4]oxazin-6-yl)phenyl]cyclohexyl}acetic acid. Some assays were performed with inclusion of didecanoylglycerol in the pre-reaction incubation of test compounds and enzyme. Reactions were initiated after 30 minute pre-reaction incubation via addition of 5 uL of 2.2× substrate. Final reaction conditions consisted of 50 mM HEPES pH 7.5, 2 mM MgCl2, 1 mM CHAPS, 25 uM didecanoylglycerol, 0.5 uM decanoyl-CoA, 0.3 nCi/uL [^14C-]decanoyl-CoA or 0.5 nCi/uL [^3H]-decanoyl-CoA, 0.05-4 ug/mL microsomal protein, and 1% DMSO. Following 60 minute reaction incubation, reactions were stopped with 40 uL of 45% isopropanol and 50 mM sodium carbonate in water and mixed. Extraction of tridecanoylglycerol product was accomplished via addition of 30 uL Microscint-E (Perkin Elmer) and 2 hours of incubation (sealed). Plates were read on a Microbeta Microplate reader Inhibition was normalized to controls containing DMSO or 10 uM {4-[4-(4-amino-7,7-dimethyl-7H-pyrimido[4,5-b][1,4]oxazin-6-yl)phenyl]cyclohexyl}acetic acid. IC50s were fitted using GraphPad Prism to a sigmoidal dose response.

Q: With `O=C(O)CC1(CC(F)(F)F)CCc2cc(-c3ccc(Nc4ccc(C(F)(F)F)nc4)nn3)ccc2C1=O` (single isomer, unassigned) [Example 23, 2-(1-oxo-2-(2,2,2-trifluoroethyl)-6-(6-(6-(trifluoromethyl)pyridin-3-ylamino)pyridazin-3-yl)-1,2,3,4-tetrahydronaphthalen-2-yl)acetic acid] as the compound, how does the IC50 read?
A: ≤ 100 nM

Q: For `O=C(O)CC1(CC(F)(F)F)CCc2cc(-c3ccc(Nc4ccc(C(F)(F)F)nc4)nn3)ccc2C1=O` (single isomer, unassigned) [Example 24, 2-(1-oxo-2-(2,2,2-trifluoroethyl)-6-(6-(6-(trifluoromethyl)pyridin-3-ylamino)pyridazin-3-yl)-1,2,3,4-tetrahydronaphthalen-2-yl)acetic acid], which IC50 is on record?
A: 500 to 10000 nM

Q: With `Cc1cnc(Nc2ccc(-c3ccc4c(c3)CCC(CC(=O)O)(CC(F)(F)F)C4=O)nn2)s1` (single isomer, unassigned) [Example 25, 2-(6-(6-(5-methylthiazol-2-ylamino)pyridazin-3-yl)-1-oxo-2-(2,2,2-trifluoroethyl)-1,2,3,4-tetrahydronaphthalen-2-yl)acetic acid] as the compound, how does the IC50 read?
A: 500 to 10000 nM

Q: With `O=C(O)CC1(CC(F)(F)F)CCc2cc(-c3cnc(Nc4cccc(Cl)c4)s3)ccc2C1=O` (single isomer, unassigned) [Example 26, 2-(6-(2-(3-Chlorophenylamino)thiazol-5-yl)-1-oxo-2-(2,2,2-trifluoroethyl)-1,2,3,4-tetrahydronaphthalen-2-yl)acetic acid] as the compound, how does the IC50 read?
A: 100 to 500 nM

Q: For `O=C(O)CC1(CC(F)(F)F)CCc2cc(-c3cnc(Nc4ccc(C(F)(F)F)nc4)s3)ccc2C1=O` (single isomer, unassigned) [Example 27, 2-(1-oxo-2-(2,2,2-trifluoroethyl)-6-(2-(6-(trifluoromethyl)pyridin-3-ylamino)thiazol-5-yl)-1,2,3,4-tetrahydronaphthalen-2-yl)acetic acid], which IC50 is on record?
A: 100 to 500 nM

Q: Which IC50 does the source give for `O=C(O)CC1(CC(F)(F)F)CCc2cc(-c3cnc(Nc4ccc(C(F)(F)F)nc4)s3)ccc2C1=O` (single isomer, unassigned) [Example 28, 2-(1-oxo-2-(2,2,2-trifluoroethyl)-6-(2-(6-(trifluoromethyl)pyridin-3-ylamino)thiazol-5-yl)-1,2,3,4-tetrahydronaphthalen-2-yl)acetic acid] here?
A: ≤ 100 nM
